According to ChEMBL document CHEMBL1146944, “Synthesis of Pseudomonas quorum-sensing autoinducer analogs and structural entities required for induction of apoptosis in macrophages” (2006):

System: P388
Experiment: Induction of apoptosis in P388D1 cell line
Assay type: functional, Mus musculus, DBA/2
Parameters: concentration or dose not given beside the values

Row | SMILES | Activity
1 | O=C(CCCCCCCCCCCc1ccccc1)CC(=O)N[C@H]1CCOC1=O | 12.2%
2 | O=C(O)CCC(=O)OCCCCCCCCCC(=O)CC(=O)N[C@H]1CCOC1=O | 114%
3 | CCCCCCCCCCCC(=O)CC(=O)N[C@H]1CCOC1=O | 14.8%
4 | O=C(CCCCCCCCCc1ccccc1)CC(=O)N[C@H]1CCOC1=O | 14.5%
5 | O=C(CCCCCCCc1ccccc1)CC(=O)N[C@H]1CCOC1=O | 25.2%
6 | O=C(CCCCCCCCCO)CC(=O)N[C@H]1CCOC1=O | 109.5%
7 | CCCCCCCC(=O)CC(=O)N[C@H]1CCOC1=O | 107.7%
8 | CCCCCCCCCC(=O)CC(=O)N[C@H]1CCCC[C@@H]1O | 96.2%
9 | CCCC(=O)N[C@H]1CCOC1=O | 100.4%
10 | CCCCCCCCCC(=O)CC(=O)Nc1ccccc1O | 109.6%
11 | CCCCC(=O)N[C@H]1CCOC1=O | 101.8%
12 | CCCCCCCCCCCC(=O)N[C@H]1CCOC1=O | 91.1%
13 | CCCCCCCCCC(=O)CC(=O)N[C@@H](C)C(=O)OC | 111.2%
14 | CCCCCCCCCC(=O)CC(=O)N[C@H]1CCOC1=O | 31.9%
15 | O=C(CCCCCC1CC1)CC(=O)N[C@H]1CCOC1=O | 122.9%
16 | CCCCCCCC(=O)CCCC(=O)N[C@H]1CCOC1=O | 97.7%
17 | CCCCC(=O)CC(=O)N[C@H]1CCOC1=O | 111%
18 | CCCCCCCCCC(=O)CC(=O)N[C@@H]1CCOC1=O | 105%
19 | O=C(CCCCCCCC1CC1)CC(=O)N[C@H]1CCOC1=O | 38.7%
20 | O=C(CCCCCc1ccccc1)CC(=O)N[C@H]1CCOC1=O | 122%
21 | CCCCCCCCC(=O)CCC(=O)N[C@H]1CCOC1=O | 115.6%
